This note sets out measurements from patent US9131697B2, “Spirocyclic isoxazolines as antiparasitic agents” (Zoetis Services LLC, priority 2012, dated 2015).

Molecules are shown by their SMILES.

In one assay the test system is Ornithidorus turicata. In words: Soft Tick (Ornithidorus turicata) Blood Feed Assay. As to conditions: nymphs fed on treated citrated bovine blood; knockdown and/or death at 24 and 72 hours. The procedure:
Soft Tick (Ornithidorus turicata) Blood Feed Assay
Compounds were dissolved in DMSO and aliquots were added to citrated bovine blood in membrane covered wells warmed to 37° C. 5 nymphs were placed on the membrane, allowed to feed to repleation, and were placed in observation wells. […] Endpoint results for subjective visual assessment of organism viability were recorded as LD100 (the lowest dose to cause 100% mortality).

The next assay relates to Aedes aeqypti. In words: Mosquito (Aedes aeqypti) Larval Assay - 1st Instar Larvae. As to conditions: first instar larvae, 25° C., motility at 24 hours, lowest dose to inhibit motility ≥50% of untreated controls, read-out: Minimum Effective Concentration (MEC). The procedure:
Mosquito (Aedes aeqypti) Larval Assay—1st Instar Larvae
Compounds were dissolved in DMSO and aliquots were spotted to empty wells. First instar larvae and maintenance media were added to the wells to obtain between 8 and 12 larvae per well in the appropriate final assay volume. Larvae were incubated in the treated media at 25° C. for 24 hours. Mosquito larvae motility was measured at 24 hours. Each compound was tested at half-log intervals, and endpoint results were recorded as Minimum Effective Concentration (MEC) in μM. MEC is an objective assessment of organism motility, and is the lowest dose to inhibit motility≧50% of untreated controls.

The next assay relates to Ctenocephalides felis. Briefly: Flea (Ctenocephalides felis) Membrane Feed Assay-Adult. The following applies: adult fleas fed on treated citrated bovine blood, knockdown and/or death at 24 hours, lowest dose causing mortality ≥50%, read-out: Minimum Effective Concentration (MEC). The procedure:
Flea (Ctenocephalides felis) Membrane Feed Assay-Adult
Compounds of the present invention were dissolved in DMSO and aliquots added to citrated bovine blood in membrane covered wells pre-warmed to 37° C. Adult fleas were newly emerged (3-7 days) and unfed. Feeding wells containing approximately 10 adult fleas were placed onto the treated blood wells, and the fleas were allowed to feed on the treated blood for 24 hours. […] Each compound was tested at half-log intervals, and endpoint data was recorded as Minimum Effective Concentration (MEC) in μM. MEC is a subjective visual assessment of organism viability, and is the lowest dose observed to cause mortality≧50%.

For the compound `CC(C)C(=O)N1CC2(C1)OCc1nc(C3=NOC(c4cc(Cl)cc(Cl)c4)(C(F)(F)F)C3)ccc12` (stereo not drawn) [Example 11, 1-(2′-(5-(3,5-dichlorophenyl)-5-(trifluoromethyl)-4,5-dihydroisoxazol-3-yl)-7′H-spiro[azetidine-3,5′-furo[3,4-b]pyridine]-1-yl)-2-methylpropan-1-one], in the assay on Ornithidorus turicata, the “LD100 (the lowest dose to cause 100% mortality)” value stood at 0.3 µg/mL. Besides, the minimal effective concentration in the assay with Aedes aeqypti is 0.3 µM.

Turning to `CS(=O)(=O)CC(=O)N1CC2(C1)OCc1nc(C3=NOC(c4cc(Cl)cc(Cl)c4)(C(F)(F)F)C3)ccc12` (stereo not drawn) [Example 8, 1-(2′-(5-(3,5-dichlorophenyl)-5-(trifluoromethyl)-4,5-dihydroisoxazol-3-yl)-7′H-spiro[azetidine-3,5′-furo[3,4-b]pyridine]-1-yl)-2-(methylsulfonyl)ethanone], the minimal effective concentration in the assay on Aedes aeqypti came to 0.3 µM.

Consider `CS(=O)(=O)CC(=O)N1CC2(C1)OCc1nc(C3=NOC(c4cc(Cl)c(F)c(Cl)c4)(C(F)(F)F)C3)ccc12` (stereo not drawn) [Example 7, 1-(2′-(5-(3,5-dichloro-4-fluorophenyl)-5-(trifluoromethyl)-4,5-dihydroisoxazol-3-yl)-7′H-spiro[azetidine-3,5′-furo[3,4-b]pyridine]-1-yl)-2-(methylsulfonyl)ethanone], for which the minimal effective concentration with Aedes aeqypti was determined as 0.3 µM.

Regarding `CC(C)C(=O)N1CC2(C1)OCc1cc(C3=NOC(c4cc(Cl)cc(Cl)c4)(C(F)(F)F)C3)ncc12` (stereo not drawn) [Example 18, 1-(6′-(5-(3,5-dichlorophenyl)-5-(trifluoromethyl)-4,5-dihydroisoxazol-3-yl)-1′H-spiro[azetidine-3,3′-furo[3,4-c]pyridine]-1-yl)-2-methylpropan-1-one], the “LD100 (the lowest dose to cause 100% mortality)” value with Ornithidorus turicata turned out to be 0.03 µg/mL. The minimal effective concentration in the assay on Aedes aeqypti came out at 0.01 µM; in the assay with Ctenocephalides felis, 0.3 µM.

For the compound `CC(C)C(=O)N1CC2(C1)OCc1cc(C3=NOC(c4cc(Cl)c(Cl)c(Cl)c4)(C(F)(F)F)C3)cnc12` (stereo not drawn) [Example 6, 1-isobutyryl-3′-[5-(3,4,5-trichlorophenyl)-5-(trifluoromethyl)-4,5-dihydroisoxazol-3-yl]-5′H-spiro[azetidin-3,7′-furo[3,4,b]pyridine]], the “LD100 (the lowest dose to cause 100% mortality)” value in the assay on Ornithidorus turicata came to 0.03 µg/mL. Further, the minimal effective concentration worked out at 0.01 µM in the assay with Aedes aeqypti and 1 µM in the assay with Ctenocephalides felis.

With `CS(=O)(=O)CC(=O)N1CC2(C1)OCc1cc(C3=NOC(c4cc(Cl)cc(Cl)c4)(C(F)(F)F)C3)cnc12` (stereo not drawn) [Example 1, 3′-[5-(3,5-dichlorophenyl)-5-(trifluoromethyl)-4,5-dihydroisoxazol-3-yl]-1-[(methylsulfonyl)acetyl]-5′H-spiro[azetidin-3,7′-furo[3,4,b]pyridine]], the “LD100 (the lowest dose to cause 100% mortality)” value with Ornithidorus turicata stood at 0.1 µg/mL. For the same compound, the values for the minimal effective concentration in the assay with Aedes aeqypti and in the assay on Ctenocephalides felis were 0.1 µM and 3 µM, respectively.

Take `CS(=O)(=O)CC(=O)N1CC2(C1)OCc1nc(C3=NOC(c4cc(Cl)c(Cl)c(Cl)c4)(C(F)(F)F)C3)ccc12` (stereo not drawn) [Example 9, 2-(methylsulfonyl)-1-(2′-(5-(3,4,5-trichlorophenyl)-5-(trifluoromethyl)-4,5-dihydroisoxazol-3-yl)-7′H-spiro[azetidine-3,5′-furo[3,4-b]pyridine]-1-yl)ethanone]: the minimal effective concentration in the assay with Aedes aeqypti was 0.3 µM.

For the compound `CC(C)C(=O)N1CC2(C1)OCc1cc(C3=NOC(c4cc(Cl)cc(Cl)c4)(C(F)(F)F)C3)cnc12` (stereo not drawn) [Example 5, 3′-[5-(3,5-dichlorophenyl)-5-(trifluoromethyl)-4,5-dihydroisoxazol-3-yl]-1-isobutyryl-5′H-spiro[azetidin-3,7′-furo[3,4,b]pyridine]], the “LD100 (the lowest dose to cause 100% mortality)” value in the assay on Ornithidorus turicata was 0.03 µg/mL. For the same compound, the results for the minimal effective concentration in the assay with Aedes aeqypti and with Ctenocephalides felis were 0.03 µM and 1 µM, respectively.

For `CC(C)C(=O)N1CC2(C1)OCc1cc(C3=NOC(c4cc(Cl)c(Cl)c(Cl)c4)(C(F)(F)F)C3)ncc12` (stereo not drawn) [Example 17, 2-methyl-1-(6′-(5-(3,4,5-trichlorophenyl)-5-(trifluoromethyl)-4,5-dihydroisoxazol-3-yl)-1′H-spiro[azetidine-3,3′-furo[3,4-c]pyridine]-1-yl)propan-1-one], the “LD100 (the lowest dose to cause 100% mortality)” value in the assay on Ornithidorus turicata was determined as 0.03 µg/mL. Besides, the figures for the minimal effective concentration in the assay on Aedes aeqypti and with Ctenocephalides felis were 0.01 µM and 0.1 µM, respectively.

As for `CS(=O)(=O)CC(=O)N1CC2(C1)OCc1cc(C3=NOC(c4cc(Cl)c(Cl)c(Cl)c4)(C(F)(F)F)C3)cnc12` (stereo not drawn) [Example 3, 1-[(methylsulfonyl)acetyl]-3′-[5-(3,4,5-trichlorophenyl)-5-(trifluoromethyl)-4,5-dihydroisoxazol-3-yl]-5′H-spiro[azetidin-3,7′-furo[3,4,b]pyridine]], the “LD100 (the lowest dose to cause 100% mortality)” value with Ornithidorus turicata was found to be 0.3 µg/mL. The minimal effective concentration in the assay on Aedes aeqypti stood at 0.03 µM; with Ctenocephalides felis, 1 µM.

Consider `CS(=O)(=O)CC(=O)N1CC2(C1)OCc1cc(C3=NOC(c4cc(Cl)c(F)c(Cl)c4)(C(F)(F)F)C3)cnc12` (stereo not drawn) [Example 2, 3′-[5-(3,5-dichloro-4-fluorophenyl)-5-(trifluoromethyl)-4,5-dihydroisoxazol-3-yl]-1-[(methylsulfonyl)acetyl]-5′H-spiro[azetidin-3,7-furo[3,4,b]pyridine]], for which the “LD100 (the lowest dose to cause 100% mortality)” value with Ornithidorus turicata was found to be 0.3 µg/mL. Further, the minimal effective concentration with Aedes aeqypti came to 0.03 µM; in the assay with Ctenocephalides felis, 1 µM.

For `CS(=O)(=O)CC(=O)N1CC2(C1)OCc1cc(C3=NOC(c4cc(Cl)c(F)c(Cl)c4)(C(F)(F)F)C3)ncc12` (stereo not drawn) [Example 13, 1-(6′-(5-(3,5-dichloro-4-fluorophenyl)-5-(trifluoromethyl)-4,5-di hydroisoxazol-3-yl)-1′H-spiro[azetidine-3,3′-furo[3,4-c]pyridine]-1-yl)-2-(methylsulfonyl)ethanone], in the assay on Ornithidorus turicata, the “LD100 (the lowest dose to cause 100% mortality)” value was determined as 0.1 µg/mL. The minimal effective concentration was 0.01 µM with Aedes aeqypti and 1 µM with Ctenocephalides felis.

Take `CS(=O)(=O)CC(=O)N1CC2(C1)OCc1cc(C3=NOC(c4cc(Cl)cc(Cl)c4)(C(F)(F)F)C3)ncc12` (stereo not drawn) [Example 15, 1-(6′-(5-(3,5-dichlorophenyl)-5-(trifluoromethyl)-4,5-dihydroisoxazol-3-yl)-1′H-spiro[azetidine-3,3′-furo[3,4-c]pyridine]-1-yl)-2-(methylsulfonyl)ethanone]: the results for the minimal effective concentration with Aedes aeqypti and with Ctenocephalides felis were 0.03 µM and 3 µM, respectively.

With `CC(C)C(=O)N1CC2(C1)OCc1cc(C3=NOC(c4cc(Cl)c(F)c(Cl)c4)(C(F)(F)F)C3)cnc12` (stereo not drawn) [Example 4, 3′-[5-(3,5-dichloro-4-fluorophenyl)-5-(trifluoromethyl)-4,5-dihydroisoxazol-3-yl]-1-isobutyryl-5′ H-spiro[azetidin-3,7′-furo[3,4,b]pyridine]], the “LD100 (the lowest dose to cause 100% mortality)” value with Ornithidorus turicata turned out to be 0.03 µg/mL. In addition, the minimal effective concentration worked out at 0.01 µM in the assay on Aedes aeqypti and 0.1 µM with Ctenocephalides felis.

Regarding `CC(C)C(=O)N1CC2(C1)OCc1nc(C3=NOC(c4cc(Cl)c(Cl)c(Cl)c4)(C(F)(F)F)C3)ccc12` (stereo not drawn) [Example 12, 2-methyl-1-(2′-(5-(3,4,5-trichlorophenyl)-5-(trifluoromethyl)-4,5-dihydroisoxazol-3-yl)-7′H-spiro[azetidine-3,5′-furo[3,4-b]pyridine]-1-yl)propan-1-one], the “LD100 (the lowest dose to cause 100% mortality)” value in the assay with Ornithidorus turicata is 0.3 µg/mL. Further, the minimal effective concentration in the assay on Aedes aeqypti came out at 0.1 µM.

In the case of `CC(C)C(=O)N1CC2(C1)OCc1nc(C3=NOC(c4cc(Cl)c(F)c(Cl)c4)(C(F)(F)F)C3)ccc12` (stereo not drawn) [Example 10, 1-(2′-(5-(3,5-dichloro-4-fluorophenyl)-5-(trifluoromethyl)-4,5-dihydroisoxazol-3-yl)-7′H-spiro[azetidine-3,5′-furo[3,4-b]pyridine]-1-yl)-2-methylpropan-1-one], the “LD100 (the lowest dose to cause 100% mortality)” value with Ornithidorus turicata worked out at 0.1 µg/mL. In addition, the minimal effective concentration in the assay on Aedes aeqypti is 0.03 µM; in the assay on Ctenocephalides felis, 3 µM.

Turning to `CC(C)C(=O)N1CC2(C1)OCc1cc(C3=NOC(c4cc(Cl)c(F)c(Cl)c4)(C(F)(F)F)C3)ncc12` (stereo not drawn) [Example 16, 1-(6′-(5-(3,5-dichloro-4-fluorophenyl)-5-(trifluoromethyl)-4,5-dihydroisoxazol-3-yl)-1′H-spiro[azetidine-3,3′-furo[3,4-c]pyridine]-1-yl)-2-methylpropan-1-one], the “LD100 (the lowest dose to cause 100% mortality)” value in the assay on Ornithidorus turicata is 0.03 µg/mL. The minimal effective concentration in the assay with Aedes aeqypti was found to be 0.001 µM; in the assay on Ctenocephalides felis it was 0.1 µM.

As to `CS(=O)(=O)CC(=O)N1CC2(C1)OCc1cc(C3=NOC(c4cc(Cl)c(Cl)c(Cl)c4)(C(F)(F)F)C3)ncc12` (stereo not drawn) [Example 14, 2-(methylsulfonyl)-1-(6′-(5-(3,4,5-trichlorophenyl)-5-(trifluoromethyl)-4,5-dihydroisoxazol-3-yl)-1′H-spiro[azetidine-3,3′-furo[3,4-c]pyridine]-1-yl)ethanone], the “LD100 (the lowest dose to cause 100% mortality)” value in the assay on Ornithidorus turicata came to 0.3 µg/mL. The minimal effective concentration with Aedes aeqypti was 0.01 µM; in the assay on Ctenocephalides felis, 1 µM.
